Assay: xn = mol fraction of the nth substance listed
Conditions: Fluid (supercritical or subcritical phases), Buoyancy - hydrostatic balance with magnetic suspension - one sinker

[C-]#[O+] [carbon monoxide] + N#N
Conditions | mass density [kg/m3]
250.04 K, 996.97 kPa, x1 = 0.04999 | 13.537
250.04 K, 1999 kPa, x1 = 0.04999 | 27.34
250.04 K, 4009.9 kPa, x1 = 0.04999 | 55.503
250.04 K, 6016.9 kPa, x1 = 0.04999 | 84.044
250.04 K, 16000 kPa, x1 = 0.04999 | 220.89
250.05 K, 969.13 kPa, x1 = 0.1002 | 13.157
250.05 K, 999.78 kPa, x1 = 0.1002 | 13.577
250.05 K, 2004.3 kPa, x1 = 0.1002 | 27.416
250.05 K, 3998.8 kPa, x1 = 0.1002 | 55.373
250.05 K, 7998.5 kPa, x1 = 0.04999 | 112.326
250.05 K, 8999 kPa, x1 = 0.1002 | 126.622
250.05 K, 9999.8 kPa, x1 = 0.04999 | 140.653
250.05 K, 11001 kPa, x1 = 0.1002 | 154.742
250.05 K, 11998 kPa, x1 = 0.04999 | 168.354
250.05 K, 13033 kPa, x1 = 0.1002 | 182.506
250.05 K, 14004 kPa, x1 = 0.04999 | 195.251
250.05 K, 15003 kPa, x1 = 0.1002 | 208.407
250.05 K, 17999 kPa, x1 = 0.04999 | 245.259
250.05 K, 18474 kPa, x1 = 0.04999 | 250.84
250.06 K, 3032.9 kPa, x1 = 0.1002 | 41.76
250.06 K, 5043.2 kPa, x1 = 0.1002 | 70.198
250.06 K, 5999.3 kPa, x1 = 0.1002 | 83.836
250.06 K, 6999.1 kPa, x1 = 0.1002 | 98.128
250.06 K, 7998.3 kPa, x1 = 0.1002 | 112.391
250.06 K, 9998.8 kPa, x1 = 0.1002 | 140.734
250.06 K, 11998 kPa, x1 = 0.1002 | 168.471
250.06 K, 13998 kPa, x1 = 0.1002 | 195.325
250.06 K, 15999 kPa, x1 = 0.1002 | 221.035
250.06 K, 16706 kPa, x1 = 0.1002 | 229.835
250.06 K, 18000 kPa, x1 = 0.1002 | 245.432
250.06 K, 19962 kPa, x1 = 0.1002 | 268.002
275.01 K, 997.91 kPa, x1 = 0.1002 | 12.276
275.01 K, 1984.4 kPa, x1 = 0.1002 | 24.502
275.01 K, 3998.5 kPa, x1 = 0.1002 | 49.641
275.01 K, 5998.9 kPa, x1 = 0.1002 | 74.708
275.01 K, 7999.4 kPa, x1 = 0.1002 | 99.667
275.02 K, 990.79 kPa, x1 = 0.04999 | 12.187
275.02 K, 1996 kPa, x1 = 0.04999 | 24.643
275.02 K, 4000.1 kPa, x1 = 0.04999 | 49.643
275.02 K, 9999.5 kPa, x1 = 0.1002 | 124.305
275.02 K, 11999 kPa, x1 = 0.04999 | 148.339
275.02 K, 12004 kPa, x1 = 0.1002 | 148.483
275.02 K, 13997 kPa, x1 = 0.04999 | 171.74
275.02 K, 14001 kPa, x1 = 0.1002 | 171.88
275.02 K, 15997 kPa, x1 = 0.04999 | 194.336
275.02 K, 15998 kPa, x1 = 0.1002 | 194.459
275.02 K, 17997 kPa, x1 = 0.1002 | 216.135
275.02 K, 18198 kPa, x1 = 0.04999 | 218.123
275.02 K, 19888 kPa, x1 = 0.1002 | 235.72
275.02 K, 19917 kPa, x1 = 0.04999 | 235.882
275.03 K, 6038.6 kPa, x1 = 0.04999 | 75.17
275.03 K, 8036.6 kPa, x1 = 0.04999 | 100.073
275.03 K, 10062 kPa, x1 = 0.04999 | 124.995
299.96 K, 1003.8 kPa, x1 = 0.04999 | 11.294
299.96 K, 2981.9 kPa, x1 = 0.04999 | 33.609
299.96 K, 4997.9 kPa, x1 = 0.04999 | 56.34
299.96 K, 6998.3 kPa, x1 = 0.04999 | 78.744
299.96 K, 9086.5 kPa, x1 = 0.04999 | 101.826
299.96 K, 11000 kPa, x1 = 0.04999 | 122.587
299.96 K, 12998 kPa, x1 = 0.04999 | 143.747
299.96 K, 14954 kPa, x1 = 0.04999 | 163.889
299.97 K, 986.71 kPa, x1 = 0.04999 | 11.101
299.97 K, 992.98 kPa, x1 = 0.1002 | 11.173
299.97 K, 1001.9 kPa, x1 = 0.1002 | 11.274
299.97 K, 1989.8 kPa, x1 = 0.1002 | 22.417
299.97 K, 1993.4 kPa, x1 = 0.04999 | 22.457
299.97 K, 2993.6 kPa, x1 = 0.1002 | 33.744
299.97 K, 3975 kPa, x1 = 0.04999 | 44.812
299.97 K, 3998.4 kPa, x1 = 0.1002 | 45.092
299.97 K, 5020.8 kPa, x1 = 0.1002 | 56.608
299.97 K, 5999.2 kPa, x1 = 0.1002 | 67.6
299.97 K, 6020.2 kPa, x1 = 0.04999 | 67.811
299.97 K, 7034 kPa, x1 = 0.1002 | 79.163
299.97 K, 8024.8 kPa, x1 = 0.04999 | 90.132
299.97 K, 9073.7 kPa, x1 = 0.1002 | 101.718
299.97 K, 9997.1 kPa, x1 = 0.1002 | 111.8
299.97 K, 10017 kPa, x1 = 0.04999 | 111.971
299.97 K, 11008 kPa, x1 = 0.1002 | 122.717
299.97 K, 11999 kPa, x1 = 0.1002 | 133.29
299.97 K, 13003 kPa, x1 = 0.1002 | 143.858
299.97 K, 13997 kPa, x1 = 0.1002 | 154.176
299.97 K, 14807 kPa, x1 = 0.1002 | 162.461
299.97 K, 15370 kPa, x1 = 0.1002 | 168.159
299.98 K, 7997.5 kPa, x1 = 0.1002 | 89.866
299.98 K, 11889 kPa, x1 = 0.04999 | 132.063
299.98 K, 13997 kPa, x1 = 0.04999 | 154.113
299.98 K, 15997 kPa, x1 = 0.04999 | 174.35
299.98 K, 16109 kPa, x1 = 0.1002 | 175.535
299.98 K, 17997 kPa, x1 = 0.04999 | 193.879
299.98 K, 17999 kPa, x1 = 0.1002 | 193.977
299.98 K, 19830 kPa, x1 = 0.1002 | 211.228
299.98 K, 19957 kPa, x1 = 0.04999 | 212.314
324.97 K, 13743 kPa, x1 = 0.04999 | 137.825
324.98 K, 996.21 kPa, x1 = 0.04999 | 10.328
324.98 K, 997.48 kPa, x1 = 0.1002 | 10.342
324.98 K, 1970.2 kPa, x1 = 0.1002 | 20.421
324.98 K, 1981.3 kPa, x1 = 0.04999 | 20.531
324.98 K, 2991.3 kPa, x1 = 0.04999 | 30.967
324.98 K, 3998.5 kPa, x1 = 0.1002 | 41.357
324.98 K, 4008.5 kPa, x1 = 0.04999 | 41.449
324.98 K, 4980 kPa, x1 = 0.04999 | 51.417
324.98 K, 5960.8 kPa, x1 = 0.04999 | 61.428
324.98 K, 6000 kPa, x1 = 0.1002 | 61.847
324.98 K, 7025.8 kPa, x1 = 0.04999 | 72.228
324.98 K, 7991 kPa, x1 = 0.04999 | 81.935
324.98 K, 7999.4 kPa, x1 = 0.1002 | 82.05
324.98 K, 8998.7 kPa, x1 = 0.04999 | 91.988

From the NIST ThermoML archive (doi:10.1021/je2007764)
